“Also recorded” adds a separate entry of the source. Read-outs that look alike come from different tables or passages of the source.

What all share (type): physicochemical
One series in a line: Solubility in water.
The nature of series [1]: Solubility in organic solvents.
A short description of series [2]: Thermodynamic stability of the solid form. The note with it: crystalline vs amorphous.
The nature of series [3]: Decomposition in solvents.

For the molecule `N[C@@H](CC(=O)Nc1ccn([C@@H]2O[C@H](CO)[C@@H](O)[C@@H]2O)c(=O)n1)C(=O)O` [Form B, (S)-2-amino-4-((1-((2R,3S,4S,5R)-3,4-dihydroxy-5-(hydroxymethyl)tetrahydrofuran-2-yl)-2-oxo-1,2-dihydropyrimidin-4-yl)amino)-4-oxobutanoic acid], the solubility in water entry in the series “Solubility in water” was “up to 2%”; in “Solubility in water” (result in words), “insoluble; also recorded: not soluble”. For the same molecule, the “solubility in DCM” value in series [1] (DCM) is given as “not soluble”. In addition, in series [1] (EtOH), the “solubility in EtOH” value was “not soluble”. The “solubility in MeOH” value in series [1] (MeOH) is on record as “not soluble”. In addition, in series [1] (NMP), the “solubility in NMP” value is “soluble”. Moreover, the “solubility in THF” value in series [1] (THF) is “not soluble”. In series [1] (amide solvent), the “solubility in an amide solvent” value is reported as “soluble”. The “solubility in ethyl acetate” value in series [1] (ethyl acetate) was “not soluble”. In addition, in series [1] (most organic solvents), the “solubility in most organic solvents” value is listed as “non soluble; also recorded: insoluble; also recorded: not soluble”. The solubility in toluene entry in series [1] (toluene) is reported as “not soluble”. In series [2], the thermodynamic stability result is on record as “thermodynamically more stable than the amorphous form”.
For `Cl.N[C@@H](CC(=O)Nc1ccn([C@@H]2O[C@H](CO)[C@@H](O)[C@@H]2O)c(=O)n1)C(=O)O` [aspacytarabine-HCl], the “decomposition in DMF” value in series [3] (strong polar aprotic solvent DMF) is on record as “decompose”. In addition, the “decomposition in DMSO” value in series [3] (strong polar aprotic solvent DMSO) is on record as “decompose”. Besides, the decomposition in water entry in series [3] (water, rate is determined by heat and time) is listed as “decompose”.

The record behind these values is patent US20230331762A1, “CRYSTALLINE FORM OF ASPACYTARABINE” (Biosight Ltd., priority 2020, published 2023).
